Measured values from ChEMBL document CHEMBL1154793, “The lecanindoles, nonsteroidal progestins from the terrestrial fungus Verticillium lecanii 6144” (J Nat Prod, 2009).

What was measured:
[1] = biological target: T1, Androgen receptor (Homo sapiens) (UniProt P10275); experiment: Antagonist activity at androgen receptor ligand binding domain expressed in african green monkey COS7 cells co-transfected with Gal4-LBD by luciferase reporter gene assay relative to control; format: cell-based; design: scale not given: the % may be the effect or the level left; conditions: COS-7
T1 sequence (whole entry): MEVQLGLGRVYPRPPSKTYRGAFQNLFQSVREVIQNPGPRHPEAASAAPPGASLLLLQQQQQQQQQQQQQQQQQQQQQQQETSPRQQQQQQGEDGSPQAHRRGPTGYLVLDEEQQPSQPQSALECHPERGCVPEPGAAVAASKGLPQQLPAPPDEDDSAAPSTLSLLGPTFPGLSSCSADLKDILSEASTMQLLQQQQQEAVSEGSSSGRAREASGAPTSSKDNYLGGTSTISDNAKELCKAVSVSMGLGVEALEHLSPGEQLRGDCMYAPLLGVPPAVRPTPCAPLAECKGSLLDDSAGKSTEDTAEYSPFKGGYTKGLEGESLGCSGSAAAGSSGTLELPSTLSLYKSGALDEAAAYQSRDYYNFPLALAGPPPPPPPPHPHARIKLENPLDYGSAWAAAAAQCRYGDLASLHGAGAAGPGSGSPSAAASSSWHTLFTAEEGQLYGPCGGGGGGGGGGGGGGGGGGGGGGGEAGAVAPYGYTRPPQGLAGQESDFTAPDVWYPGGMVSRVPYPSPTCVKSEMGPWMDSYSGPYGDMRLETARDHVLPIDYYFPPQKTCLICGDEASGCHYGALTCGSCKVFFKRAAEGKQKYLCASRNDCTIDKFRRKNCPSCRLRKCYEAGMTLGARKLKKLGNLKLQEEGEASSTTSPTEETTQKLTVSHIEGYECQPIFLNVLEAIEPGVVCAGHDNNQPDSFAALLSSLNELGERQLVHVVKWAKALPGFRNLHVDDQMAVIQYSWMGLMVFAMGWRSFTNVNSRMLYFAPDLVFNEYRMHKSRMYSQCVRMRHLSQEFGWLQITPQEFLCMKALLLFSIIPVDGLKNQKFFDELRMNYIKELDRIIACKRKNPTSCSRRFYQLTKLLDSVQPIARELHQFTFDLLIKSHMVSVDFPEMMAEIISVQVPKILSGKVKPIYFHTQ

[2] = biological target: T2, Mineralocorticoid receptor (Homo sapiens) (UniProt P08235); experiment: Antagonist activity at mineralocorticoid receptor ligand binding domain expressed in african green monkey COS7 cells co-transfected with Gal4-LBD by luciferase reporter gene assay relative to control; format: cell-based; design: scale not given: the % may be the effect or the level left; conditions: COS-7
T2 sequence (whole entry): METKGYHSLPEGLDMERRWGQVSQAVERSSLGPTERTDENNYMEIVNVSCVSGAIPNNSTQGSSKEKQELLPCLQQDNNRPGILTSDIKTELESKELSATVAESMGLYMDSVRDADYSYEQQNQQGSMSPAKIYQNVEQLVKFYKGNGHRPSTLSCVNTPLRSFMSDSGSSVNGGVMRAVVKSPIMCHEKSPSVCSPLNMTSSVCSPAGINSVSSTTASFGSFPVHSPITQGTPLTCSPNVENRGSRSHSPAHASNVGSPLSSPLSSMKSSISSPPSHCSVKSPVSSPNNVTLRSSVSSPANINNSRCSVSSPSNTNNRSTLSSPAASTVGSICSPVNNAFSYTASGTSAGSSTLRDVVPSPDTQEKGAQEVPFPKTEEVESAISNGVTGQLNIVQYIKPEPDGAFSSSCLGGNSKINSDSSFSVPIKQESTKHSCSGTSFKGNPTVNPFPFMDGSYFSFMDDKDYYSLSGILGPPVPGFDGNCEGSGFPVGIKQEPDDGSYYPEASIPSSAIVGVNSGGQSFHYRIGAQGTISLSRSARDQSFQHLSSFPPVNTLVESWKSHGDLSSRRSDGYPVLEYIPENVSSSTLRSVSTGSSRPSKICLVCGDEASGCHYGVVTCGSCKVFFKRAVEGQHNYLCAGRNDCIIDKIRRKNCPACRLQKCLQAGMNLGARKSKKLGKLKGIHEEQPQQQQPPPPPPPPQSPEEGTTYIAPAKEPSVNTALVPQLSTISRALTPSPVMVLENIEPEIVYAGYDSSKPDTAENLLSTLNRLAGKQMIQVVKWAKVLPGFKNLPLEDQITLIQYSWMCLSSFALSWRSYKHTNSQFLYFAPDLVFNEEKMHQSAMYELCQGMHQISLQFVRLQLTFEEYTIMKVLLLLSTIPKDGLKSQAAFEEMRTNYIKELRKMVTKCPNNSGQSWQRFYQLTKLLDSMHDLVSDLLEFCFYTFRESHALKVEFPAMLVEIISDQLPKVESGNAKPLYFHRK

Androgen receptor = biological target: T3, Androgen receptor (Homo sapiens, UniProt P10275); experiment: Agonist activity at androgen receptor ligand binding domain expressed in african green monkey COS7 cells co-transfected with Gal4-DBD up to 10 uM by luciferase reporter gene assay; format: cell-based; conditions: cos-7
T3 sequence (P10275 whole entry): T1 sequence (whole entry)

Estrogen receptor = biological target: T4, Estrogen receptor (Homo sapiens, UniProt P03372); experiment: Agonist activity at estrogen receptor alpha ligand binding domain expressed in african green monkey COS7 cells co-transfected with Gal4-LBD by luciferase reporter gene assay; format: cell-based, COS-7
T4 sequence (P03372 whole entry): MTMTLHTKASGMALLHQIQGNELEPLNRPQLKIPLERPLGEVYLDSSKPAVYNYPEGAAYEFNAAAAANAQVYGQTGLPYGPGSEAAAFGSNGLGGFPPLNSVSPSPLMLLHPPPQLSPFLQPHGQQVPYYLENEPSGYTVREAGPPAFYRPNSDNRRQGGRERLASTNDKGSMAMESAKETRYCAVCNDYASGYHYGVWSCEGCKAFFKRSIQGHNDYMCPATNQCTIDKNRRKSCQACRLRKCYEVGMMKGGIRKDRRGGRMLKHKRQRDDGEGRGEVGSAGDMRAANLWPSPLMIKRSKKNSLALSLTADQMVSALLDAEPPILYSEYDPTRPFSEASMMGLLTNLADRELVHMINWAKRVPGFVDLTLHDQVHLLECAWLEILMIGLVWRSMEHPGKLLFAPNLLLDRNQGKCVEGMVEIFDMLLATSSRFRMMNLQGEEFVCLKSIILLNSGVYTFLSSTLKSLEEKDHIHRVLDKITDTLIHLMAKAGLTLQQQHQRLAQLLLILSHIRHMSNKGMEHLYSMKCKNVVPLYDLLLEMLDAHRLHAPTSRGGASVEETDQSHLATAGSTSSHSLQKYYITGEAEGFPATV

Compound	Activity [1] [%]	Activity [2] [%]	EC50 (Androgen receptor)	EC50 (Estrogen receptor) [µM]
CC1(C)C(=O)CC[C@]2(C)[C@@]3(C)c4[nH]c5ccccc5c4C[C@@H]3CC[C@@]12O [LECANINDOLE B]	32	47	Not Active	> 10
CC1(C)[C@H](O)CC[C@]2(C)[C@@]3(C)c4[nH]c5ccccc5c4C[C@@H]3CC[C@@]12O [LECANINDOLE D]	41	82	Not Active	> 10
